Experiment [1] concerns the target T1, IL-17A/A (Homo sapiens, UniProt Q16552).
T1 construct: purchased Genscript Z03228
T1 sequence (Q16552 24-155): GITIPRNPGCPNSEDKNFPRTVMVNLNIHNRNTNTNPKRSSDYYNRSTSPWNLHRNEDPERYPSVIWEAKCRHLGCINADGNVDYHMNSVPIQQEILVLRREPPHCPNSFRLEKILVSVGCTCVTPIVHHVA
Kind of experiment: IL-17A/A HEK-Blue cell assay (SEAP reporter). As to conditions: HEK-Blue IL-17A reporter cells, IL17A/A 5 ng/mL, 20 hours, SEAP read at A630; read-out: HEK-Blue IL17AA (IC50 for IL-17A/A inhibition). Format: cell-based. As for the experimental part: (§1) The HEK-Blue IL-17A reporter cell line (Fisher #NC 1408637) was used for cell-based IL-17A/A inhibition assays. Cells were grown and prepared for assays according to the manufacturer's instructions. This cell line consists of HEK 293 cells that were designed to expressed IL-17RA, IL-17RC, and the Act1 adapter molecule, the combination of which, when stimulated by IL-17A/A or IL17A/F activates a […] promoter and drives expression of the recombinant Secreted Alkaline Phosphatase (SEAP) gene. Media from the cells is then added to a development reagent (Quanti-Blue Substrate, Fisher #NC971 1613), and read at A630.
(§2) Compounds were dispensed in DMSO to an empty clear 384-well tissue culture plate in a titration ranging from 10 μM to 27 pM, with DMSO added to every well to a final concentration of […]. Cells were then added to the plate (45 μL/well at a concentration of 280,000 cells/mL). IL17A/A (Genscript #Z03228) or IL17A/F (R&D Systems) was added to the plate to a final concentration of 5 ng/mL and a final well volume of 50 μL. The cells, compound, and IL-17A/A or IL17A/F were then incubated for 20 hours before media was removed for SEAP analysis. The resulting inhibition curve was then analyzed using Dotmatics' integrated 4-parameter fit screening protocol to generate IC50 values.
(§3) Table 2 includes IC50 values for IL-17A/A and IL-17A/F inhibition of selected compounds; with compounds having a IC50 of A<100 nM; B 100-1000 nM; and C>1000 nM.

Experiment [2] deals with T2, IL-17A/F (Homo sapiens, UniProt Q16552+Q96PD4).
T2 construct: purchased R&D Systems
T2 sequence (Q16552 24-155): T1 sequence (Q16552 24-155)
T2 sequence (Q96PD4 31-163): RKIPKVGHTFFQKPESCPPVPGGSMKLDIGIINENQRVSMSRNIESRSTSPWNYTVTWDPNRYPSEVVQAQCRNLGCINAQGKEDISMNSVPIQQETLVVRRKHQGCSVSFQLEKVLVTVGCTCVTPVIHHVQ
Kind of experiment: IL-17A/F HEK-Blue cell assay (SEAP reporter). Format: cell-based. Conditions: HEK-Blue IL-17A reporter cells, IL17A/F 5 ng/mL, 20 hours, SEAP read at A630; read-out: HEK-Blue IL17AF (IC50 for IL-17A/F inhibition). As for the experimental part:
as §1, §2, §3

On to `CCn1nccc1C(=O)N[C@H](c1cn2nc(C[C@@H]3C[C@H](C)CNC3=O)c(C(C)C)nc2n1)C1CCC(F)(F)CC1` [Compound 392], for which the IC50 is less than 100 nM in experiment [1] and more than 1000 nM in experiment [2].
`CC(C)n1nccc1C(=O)N[C@H](c1cn2nc(CC3C[C@H](C(F)(F)F)CNC3=O)cnc2n1)C1CCC(F)(F)CC1` (stereo partly drawn) [Compound 15, N—((S)-(4,4-difluorocyclohexyl)(2-(((5S)-2-oxo-5-(trifluoromethyl)piperidin-3-yl)methyl)imidazo[1,2-b][1,2,4]triazin-6-yl)methyl)-1-isopropyl-1H-pyrazole-5-carboxamide]: the figures for the IC50 in experiment [1] and in experiment [2] were 100 to 1000 nM and more than 1000 nM, respectively.
Consider `Cn1nccc1C(=O)N[C@H](c1cn2nc(C[C@H]3C[C@@H](C(F)(F)F)CNC3=O)c([C@@H]3CCCOC3)nc2n1)[C@H]1CCCC(F)(F)C1` (single isomer, unassigned) [Compound 268], for which the IC50 is less than 100 nM in experiment [1] and 100 to 1000 nM in experiment [2].
For `CCn1nccc1C(=O)N[C@H](c1cn2nc(CC3C[C@@H](C(F)(F)F)CNC3=O)c(N3CC4CC(C3)O4)nc2n1)C1CCC(F)(F)CC1` (single isomer, unassigned) [Compound 81], in that order: less than 100 nM and 100 to 1000 nM.
With `CCn1nccc1C(=O)N[C@H](c1cn2nc(C[C@H]3C[C@@H](C(F)(F)F)CNC3=O)c(N3CCN[C@@H](C)C3)nc2n1)C1CCC(F)(F)CC1` [Compound 239, N—((S)-(4,4-difluorocyclohexyl)(3-((S)-3-methylpiperazin-1-yl)-2-(((3R,5R)-2-oxo-5-(trifluoromethyl)piperidin-3-yl)methyl)imidazo[1,2-b][1,2,4]triazin-6-yl)methyl)-1-ethyl-1H-pyrazole-5-carboxamide], the IC50 in experiment [1] is 100 to 1000 nM; in experiment [2], more than 1000 nM.
`CCn1nccc1C(=O)N[C@H](c1cn2nc(C[C@H]3C[C@@H](C(F)(F)F)CNC3=O)c(CC3COCCO3)nc2n1)C1CCC(F)(F)CC1` (stereo partly drawn) [Compound 173, N-((1S)-(3-((1,4-dioxan-2-yl)methyl)-2-(((3R,5R)-2-oxo-5-(trifluoromethyl)piperidin-3-yl)methyl)imidazo[1,2-b][1,2,4]triazin-6-yl)(4,4-difluorocyclohexyl)methyl)-1-ethyl-1H-pyrazole-5-carboxamide]: the IC50 in experiment [1] was 100 to 1000 nM; in experiment [2], more than 1000 nM.
For `O=C(N[C@H](c1cn2nc(C[C@H]3C[C@@H](C(F)(F)F)CNC3=O)c(C3CCOCC3)nc2n1)C1CCC(F)(F)CC1)c1ccnn1CCN1CCOCC1` [Compound 378, N—((S)-(4,4-difluorocyclohexyl)(2-(((3R,5R)-2-oxo-5-(trifluoromethyl)piperidin-3-yl)methyl)-3-(tetrahydro-2H-pyran-4-yl)imidazo[1,2-b][1,2,4]triazin-6-yl)methyl)-1-(2-morpholinoethyl)-1H-pyrazole-5-carboxamide], in that order: less than 100 nM and more than 1000 nM.
Take `CCn1nccc1C(=O)N[C@H](c1cn2nc(CC3C[C@@H](C(F)(F)F)CNC3=O)c(N3CC4CC(C3)O4)nc2n1)[C@H]1CC[C@H](C)CC1` (single isomer, unassigned) [Compound 102]: the IC50 in experiment [1] and in experiment [2] was less than 100 nM in each case.
Consider `CCn1nccc1C(=O)N[C@H](c1cn2nc(C[C@@H]3CC4(CC4)CNC3=O)c(C3CCOCC3)nc2n1)C1CCC(F)(F)CC1` [Compound 424], for which the IC50 in experiment [1] is less than 100 nM; in experiment [2], 100 to 1000 nM.
As to `Cc1nonc1C(=O)N[C@H](c1cn2nc(C[C@H]3C[C@@H](C(F)(F)F)CNC3=O)c(N3CCN(C)C4(CC4)C3)nc2n1)C1CCC(F)(F)CC1` [Compound 411, N—((S)-(4,4-difluorocyclohexyl)(3-(4-methyl-4,7-diazaspiro[2.5]octan-7-yl)-2-(((3R,5R)-2-oxo-5-(trifluoromethyl)piperidin-3-yl)methyl)imidazo[1,2-b][1,2,4]triazin-6-yl)methyl)-4-methyl-1,2,5-oxadiazole-3-carboxamide], the values for the IC50 in experiment [1] and in experiment [2] were less than 100 nM and more than 1000 nM, respectively.
For `O=C(N[C@H](c1cn2nc(C[C@H]3C[C@@H](C(F)(F)F)CNC3=O)c(C3CCOCC3)nc2n1)C1CCC(F)(F)CC1)c1ccnn1C(F)F` [Compound 185, N-((1S)-(4,4-difluorocyclohexyl)(2-(((3R,5R)-2-oxo-5-(trifluoromethyl)piperidin-3-yl)methyl)-3-(tetrahydro-2H-pyran-4-yl)imidazo[1,2-b][1,2,4]triazin-6-yl)methyl)-1-(difluoromethyl)-1H-pyrazole-5-carboxamide] the same measures were less than 100 nM and 100 to 1000 nM.
Turning to `CCn1ncnc1C(=O)N[C@H](c1cn2nc(C[C@H]3C[C@@H](C(F)(F)F)CNC3=O)c(C3CCOCC3)nc2n1)[C@H]1CC[C@H](C)CC1` [Compound 383, 1-ethyl-N—((S)-((1r,4S)-4-methylcyclohexyl)(2-(((3R,5R)-2-oxo-5-(trifluoromethyl)piperidin-3-yl)methyl)-3-(tetrahydro-2H-pyran-4-yl)imidazo[1,2-b][1,2,4]triazin-6-yl)methyl)-1H-1,2,4-triazole-5-carboxamide], the results for the IC50 in experiment [1] and in experiment [2] were less than 100 nM and 100 to 1000 nM, respectively.
Take `CCc1nonc1C(=O)N[C@H](c1cn2nc(C[C@H]3C[C@@H](C(F)(F)F)CNC3=O)c(N3CCN(CCOC)CC3)nc2n1)C1CCC(F)(F)CC1` [Compound 421, N—((S)-(4,4-difluorocyclohexyl)(3-(4-(2-methoxyethyl)piperazin-1-yl)-2-(((3R,5R)-2-oxo-5-(trifluoromethyl)piperidin-3-yl)methyl)imidazo[1,2-b][1,2,4]triazin-6-yl)methyl)-4-ethyl-1,2,5-oxadiazole-3-carboxamide]: the results for the IC50 in experiment [1] and in experiment [2] were less than 100 nM and more than 1000 nM, respectively.
For the compound `CC(F)(F)C(=O)N[C@H](c1cn2nc(C[C@H]3C[C@@H](C(F)(F)F)CNC3=O)c(C3CCOCC3)nc2n1)C1CCC(F)(F)CC1` [Compound 438, N—((S)-(4,4-difluorocyclohexyl)(2-(((3R,5R)-2-oxo-5-(trifluoromethyl)piperidin-3-yl)methyl)-3-(tetrahydro-2H-pyran-4-yl)imidazo[1,2-b][1,2,4]triazin-6-yl)methyl)-2,2-difluoropropanamide], the IC50 in experiment [1] was 100 to 1000 nM.
For the compound `CCn1nccc1C(=O)N[C@H](c1cn2nc(C[C@H]3C[C@H](C(F)(F)F)CNC3=O)cnc2n1)C1CCC(F)(F)CC1` [Compound 52], in experiment [1], the IC50 was in the range of 100 to 1000 nM.
As to `CC(C)n1nccc1C(=O)N[C@H](c1cn2nc(C[C@@H]3C[C@@H](C(F)(F)F)CNC3=O)cnc2n1)C1CCC(F)(F)CC1` [Compound 202], in experiment [1], the IC50 was in the range of 100 to 1000 nM.
For `CCn1nccc1C(=O)N[C@H](c1cn2nc(CC3C[C@H](C(F)(F)F)CNC3=O)cnc2n1)C1CCC(F)(F)CC1` (stereo partly drawn) [Compound 14, N—((S)-(4,4-difluorocyclohexyl)(2-(((5S)-2-oxo-5-(trifluoromethyl)piperidin-3-yl)methyl)imidazo[1,2-b][1,2,4]triazin-6-yl)methyl)-1-ethyl-1H-pyrazole-5-carboxamide], the IC50 in experiment [1] is 100 to 1000 nM.
As to `CCn1nccc1C(=O)N[C@H](c1cn2nc(C[C@H]3C[C@@H](C(F)(F)F)CNC3=O)c(C(C)(C)F)nc2n1)C1CCC(F)(F)CC1` [Compound 233, N—((S)-(4,4-difluorocyclohexyl)(3-(2-fluoropropan-2-yl)-2-(((3R,5R)-2-oxo-5-(trifluoromethyl)piperidin-3-yl)methyl)imidazo[1,2-b][1,2,4]triazin-6-yl)methyl)-1-ethyl-1H-pyrazole-5-carboxamide], the IC50 in experiment [1] was less than 100 nM.

Values taken from US20260226068A1, “IMIDAZOTRIAZINE IL-17A MODULATORS AND USES THEREOF” (DICE ALPHA, INC., priority 2023, published 2026).
